Measured values published in US20030017186A1, “Carboxylic acid fluorides as pesticides” (priority 1999, published 2003).

Key:
[1] = test system: House longhorn beetle (Hylotrupes bajulus); assay: Fumigation test in glass vessel, house longhorn beetles; assay type: in vivo; details: HYLOBA beetles; Example 5; ACF 50.6/48.2/51.4 g/m^3, SF 47.4/44.6/41 g/m^3 (1st/2nd/3rd fumigation); 23/23/22° C.
Source text: (§1) b1) House longhorn beetle (Hylotrupes bajulus)=HYLOBA
(§2) The test organisms, separated by species, were placed into a glass vessel measuring 30 cm×30 cm×60 cm, which was sealed with a glass lid so as to be airtight. The adults and the larvae of the mealworm beetle (Tenebrio molitor) and the broad-horned flour beetle (Gnathocerus cornutus) were placed into small glass vessels approximately 5 cm in diameter, which were closed with a gauze lid and in which they could freely move about. The larvae of the rice weevil had burrowed into seeds of grain. The wood pest larvae were inserted into small blocks of wood measuring 5 cm×2.5 cm×2 cm. The openings were sealed with wads of cotton wool. Only one each of the larvae of the house longhorn beetle (Hylotrupes bajulus) was inserted into a piece of wood, while 6-8 larvae of the common furniture beetle (Anobium punctatum) were inserted into each piece of wood.
(§3) The respective gas was then introduced into the fumigation vessel through a gas line from a gas tank that contained the specified amount of gas. After a defined time period, the fumigation vessel was purged with compressed air. The discharged gas was purified by an attached gas scrubber.
(§4) The beetles were observed until they died. This point was recorded for each species. The larvae of the wood pests as well as the larvae of the rice weevil (Sitophilus oryzae) had to be picked out of the wood or the grain to check their condition. If any of the animals were still alive, the wooden test blocks remaining in the vessel were fumigated again and were reexamined after the corresponding time span had elapsed. The same number of animals in the untreated control was also checked at each point.
(§5) The vitality of the animals was checked at certain time intervals. The beetles could be observed through the fumigation vessel. This was also true for the larvae of the mealworm beetle and the broad-horned flour beetle. The wooden test blocks of the wood pest larvae were opened with hammer and chisel. Tweezers were used to pull the rice weevil larvae out of the grain seeds. The exact time intervals and the number of the evaluated pests were documented in the test results.

[2] = test system: House longhorn beetle (Hylotrupes bajulus) larvae; assay: Fumigation test in glass vessel, house longhorn beetle larvae in wood blocks; assay type: in vivo; details: HYLOBA larvae in wood blocks; Example 5; ACF 50.6/48.2/51.4 g/m^3, SF 47.4/44.6/41 g/m^3 (1st/2nd/3rd fumigation); 23/23/22° C.
Source text: as §1, §2, §3, §4, §5

[3] = test system: Common furniture beetle (Anobium punctatum); assay: Fumigation test in glass vessel, common furniture beetles; assay type: in vivo; details: ANOBPU beetles; Example 5; ACF 50.6/48.2/51.4 g/m^3, SF 47.4/44.6/41 g/m^3 (1st/2nd/3rd fumigation); 23/23/22° C.
Source text: (§6) b2) Common furniture beetle (Anobium punctatum)=[…]
as §2, §3, §4, §5

[4] = test system: Common furniture beetle (Anobium punctatum) larvae; assay: Fumigation test in glass vessel, common furniture beetle larvae in wood blocks; assay type: in vivo; details: ANOBPU larvae in wood blocks; Example 5; ACF 50.6/48.2/51.4 g/m^3, SF 47.4/44.6/41 g/m^3 (1st/2nd/3rd fumigation); 23/23/22° C.
Source text: as §6, §2, §3, §4, §5

[5] = test system: Mealworm beetle (Tenebrio molitor); assay: Fumigation test in glass vessel, mealworm beetles; assay type: in vivo; details: TENEMO beetles; Example 5; ACF 50.6/48.2/51.4 g/m^3, SF 47.4/44.6/41 g/m^3 (1st/2nd/3rd fumigation); 23/23/22° C.
Source text: (§7) a1) Mealworm beetle (Tenebrio molitor)=TENEMO
as §2, §3, §4, §5

[6] = test system: Mealworm beetle (Tenebrio molitor) larvae; assay: Fumigation test in glass vessel, mealworm beetle larvae; assay type: in vivo; details: TENEMO larvae; Example 5; ACF 50.6/48.2/51.4 g/m^3, SF 47.4/44.6/41 g/m^3 (1st/2nd/3rd fumigation); 23/23/22° C.
Source text: as §7, §2, §3, §4, §5

[7] = test system: Rice weevil (Sitophilus oryzae); assay: Fumigation test in glass vessel, rice weevils; assay type: in vivo; details: SITTOR beetles; Example 5; ACF 50.6/48.2/51.4 g/m^3, SF 47.4/44.6/41 g/m^3 (1st/2nd/3rd fumigation); 23/23/22° C.
Source text: (§8) a2) Rice weevil (Sitophilus oryzae)=SITTOR
as §2, §3, §4, §5

[8] = test system: Rice weevil (Sitophilus oryzae) larvae; assay: Fumigation test in glass vessel, rice weevil larvae in grain seeds; assay type: in vivo; details: SITTOR larvae in grain seeds; Example 5; ACF 50.6/48.2/51.4 g/m^3, SF 47.4/44.6/41 g/m^3 (1st/2nd/3rd fumigation); 23/23/22° C.
Source text: as §8, §2, §3, §4, §5

[9] = test system: Broad-horned flour beetle (Gnathocerus cornutus); assay: Fumigation test in glass vessel, broad-horned flour beetles; assay type: in vivo; details: GNATCO beetles; Example 5; ACF 50.6/48.2/51.4 g/m^3, SF 47.4/44.6/41 g/m^3 (1st/2nd/3rd fumigation); 23/23/22° C.
Source text: (§9) a3) Broad-horned flour beetle (Gnathocerus cornutus)=GNATCO
as §2, §3, §4, §5

[10] = test system: Broad-horned flour beetle (Gnathocerus cornutus) larvae; assay: Fumigation test in glass vessel, broad-horned flour beetle larvae; assay type: in vivo; details: GNATCO larvae; Example 5; ACF 50.6/48.2/51.4 g/m^3, SF 47.4/44.6/41 g/m^3 (1st/2nd/3rd fumigation); 23/23/22° C.
Source text: as §9, §2, §3, §4, §5

[11] = test system: Saw-toothed grain beetle (Oryzaephilus surinamensis); assay: Fumigation test in glass vessel, saw-toothed grain beetles; assay type: in vivo; details: ORYZSA beetles; Example 5; ACF 50.6/48.2/51.4 g/m^3, SF 47.4/44.6/41 g/m^3 (1st/2nd/3rd fumigation); 23/23/22° C.
Source text: a4) Saw-toothed grain beetle (Oryzaephilus surinamensis)=ORYZSA
as §2, §3, §4, §5

[12] = test system: American drywood termites (Cryptotermes brevis); assay: Termite control fumigation test, Cryptotermes brevis; assay type: in vivo; details: Example 6
Source text: (§10) c) American drywood termites (Cryptotermes brevis)=CRYPBR, and Incisitermes tabogae=INCITA
as §2, §3, §4, §5

Incisitermes tabogae = assay: Termite control fumigation test, Incisitermes tabogae; assay type: in vivo; details: Example 6
Source text: as §10, §2, §3, §4, §5

wood and storage pests = assay: Fumigation test, wood and storage pests (overall statements); assay type: in vivo; details: Example 5; wood and storage pests
Source text: as §2, §3, §4, §5

termites = assay: Termite control fumigation test (overall statements); assay type: in vivo, Cryptotermes brevis, Incisitermes tabogae; details: Example 6; compared with those treated with acetyl fluoride
Source text: as §10, §2, §3, §4
The vitality of the animals was checked at certain time intervals. The beetles could be observed through the fumigation vessel. This was also true for the larvae of the mealworm beetle and the broad-horned flour beetle. […] The exact time intervals and the number of the evaluated pests were documented in the test results.

[13] = CRYPBR termites, ACF 50.0/53.8 g/m^3, SF 47.8/44.8 g/m^3 (1st/2nd fumigation), 23.7/24° C.
[14] = INCITA termites, ACF 50.0/53.8 g/m^3, SF 47.8/44.8 g/m^3 (1st/2nd fumigation), 23.7/24° C.

O=S(=O)(F)F [SF, sulfuryl fluoride, reference compound]
Number alive, 30 min. after Start of Fumigation [1]: 4
Number alive, 1 hr. after Start of Fumigation [1]: 2
Number alive, 3 hrs. after Start of Fumigation [1]: 0
Number dead, 30 min. after Start of Fumigation [1]: 0
Number dead, 1 hr. after Start of Fumigation [1]: 2
Number dead, 3 hrs. after Start of Fumigation [1]: 4
Number alive, 1 hr. after Start of Fumigation [2]: 3
Number alive, 3 hrs. after Start of Fumigation [2]: 0
Number alive, 6 hrs after Start of Fumigation [2]: 0
Number dead, 1 hr. after Start of Fumigation [2]: 1
Number dead, 3 hrs. after Start of Fumigation [2]: 4
Number dead, 6 hrs after Start of Fumigation [2]: 6
Number alive, 30 min. after Start of Fumigation [3]: 0
Number dead, 30 min. after Start of Fumigation [3]: 6
Number alive, 1 hr. after Start of Fumigation [4]: 3
Number alive, 3 hrs. after Start of Fumigation [4]: 4
Number alive, 6 hrs after Start of Fumigation [4]: 0
Number dead, 1 hr. after Start of Fumigation [4]: 0
Number dead, 3 hrs. after Start of Fumigation [4]: 0
Number dead, 6 hrs after Start of Fumigation [4]: 8
Number alive, 30 min. after Start of Fumigation [5]: 0
Number dead, 30 min. after Start of Fumigation [5]: 10
Number alive, 30 min. after Start of Fumigation [6]: 1
Number alive, 1 hr. after Start of Fumigation [6]: 1
Number alive, 3 hrs. after Start of Fumigation [6]: 0
Number dead, 30 min. after Start of Fumigation [6]: 4
Number dead, 1 hr. after Start of Fumigation [6]: 4
Number dead, 3 hrs. after Start of Fumigation [6]: 5
Number alive, 30 min. after Start of Fumigation [7]: 0
Number dead, 30 min. after Start of Fumigation [7]: 15
Number alive, 1 hr. after Start of Fumigation [8]: 0
Number dead, 1 hr. after Start of Fumigation [8]: 15
Number alive, 30 min. after Start of Fumigation [9]: 0
Number dead, 30 min. after Start of Fumigation [9]: 15
Number alive, 30 min. after Start of Fumigation [10]: 15
Number alive, 1 hr. after Start of Fumigation [10]: 0
Number dead, 30 min. after Start of Fumigation [10]: 0
Number dead, 1 hr. after Start of Fumigation [10]: 15
Number alive, 30 min. after Start of Fumigation [11]: 0
Number dead, 30 min. after Start of Fumigation [11]: 15
Number alive, 30 min. after 1st Fumigation [12, 13]: 180
Number alive, 1 hr. after 1st Fumigation [12, 13]: 60
Number alive, 3 hrs. after 1st Fumigation [12, 13]: 0
Number dead, 30 min. after 1st Fumigation [12, 13]: 0
Number dead, 1 hr. after 1st Fumigation [12, 13]: 0
Number dead, 3 hrs. after 1st Fumigation [12, 13]: 120
Number of Cryptotermes still alive on reexamination after 24-hour observation period ([12]; out of 60 animals fumigated 1 hour, then 24-hour observation): 7
Condition of Incisitermes on reexamination after 24-hour observation period (Incisitermes tabogae; animals fumigated 1 hour, then 24-hour observation): dead
Number alive, 30 min. after 1st Fumigation (Incisitermes tabogae; [14]): 90
Number alive, 1 hr. after 1st Fumigation (Incisitermes tabogae; [14]): 30
Number alive, 3 hrs. after 1st Fumigation (Incisitermes tabogae; [14]): 0
Number dead, 30 min. after 1st Fumigation (Incisitermes tabogae; [14]): 0
Number dead, 1 hr. after 1st Fumigation (Incisitermes tabogae; [14]): 0
Number dead, 3 hrs. after 1st Fumigation (Incisitermes tabogae; [14]): 60
Speed of action compared with acetyl fluoride (wood and storage pests): clearly acts more slowly than acetyl fluoride
Liveliness of termites after 1 hour of fumigation (termites): more lively overall
